Assay results: publication PMC11045757, “Group 3 medulloblastoma transcriptional networks collapse under domain specific EP300/CBP inhibition” (Nature Communications, 2024)
“And” between values parts separate entries of the source, which are not always exact repeats. Equal values may be shown once. Read-outs that look alike come from different tables or passages of the source.

How the values were obtained:
Format in all cases: cell-based
[1] = test system: MB002 cells; test: ERCC spike-in RNAseq gene expression after 6 h treatment; settings: MB002, replicate values, Supplementary Fig 6c
Protocol: (§1) First, we examined global changes in gene expression induced by drug treatment.
(§2) External RNA consortium control RNAs (ERCC, Ambion) were added directly to Trizol, based on cell number prior to RNA extraction. RNA samples were treated with DNAse I (Invitrogen) prior to recovery. Samples were obtained in biological triplicate. Total RNA was subjected to ribosomal RNA depletion prior to library preparation using the Truseq Stranded Total Library Prep Kit (Illumina) and sequencing on a Nextseq-500 (paired end, 100 bp reads).
(§3) Sequences were aligned using HISAT2 (version 2.1.0)[77] in paired-end mode with default parameters to build version hg19 of the human genome to which the sequences of the ERCC synthetic spike-in RNAs (http://tools.invitrogen.com/downloads/ERCC92.fa) had been added. Per-gene expression was quantified using htseq-count[78] with parameters “-i gene_id --stranded=reverse -f bam -m,” and version 87 of the canonical GRCh37 gene list from RefSeq to which ERCC coordinates were added. TPM-normalized (Transcripts Per Million) expression was then computed for each gene and synthetic ERCC spike-in RNA. Per-gene exon length was calculated across all exons of all isoforms of each gene. The standard TPM-normalization strategy is: normterm = sum of (read count * read length/exon length) across all genes. TPM = read count * read length/exon length * 1e6/normterm. We used a loess regression to normalize the TPM values across all samples of the batch, using only the spike-in values to fit the loess by the “affy” R package[79] with function loess.normalize. This function allowed us to perform loess regression on a matrix of TPM values and used the ERCC subset of data for fitting the loess. The output from this was a matrix of normalized TPM values controlled by ERCC spike-ins.
(§4) We used the elbow method[81] to determine the k value in k-means cluster analysis.
(§5) Dependency analysis was performed using the 22Q4 release of the DepMap dataset, comprising seven medulloblastoma cell lines: UW228, DAOY, ONS76, D458, D425, D283MED, D341MED. Dependency was defined as a Chronos gene effect score of <−0.5, and gene lists were filtered for dependency in >2/7 medulloblastoma cell lines. […] PANTHER was used to define gene annotations, with unknown annotations assigned using individual assessment using the Genecards.org resource.

[2] = test system: HDMB03 (HDMBO3) cells; test: as above; settings: HDMBO3, replicate values, Supplementary Fig 6c
Protocol: as §1, §2, §3, §4, §5

[3] = test system: HDMB03 (HDMBO3) group 3 medulloblastoma cells; test: CellTiter-Glo dose-response growth assay; settings: for normalized growth (fraction of control), replicate values: HDMBO3, log10[compound]; for IC50: Homo sapiens
Method in brief: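 Growth of the G3MB line HDMB03 was assessed across compound concentrations. Cells went into 384-well plates at 500 cells per well in growth medium and were exposed to compound for the indicated time. A CellTiter-Glo luminescence assay, run per manufacturer instructions and read on an Envision 2104 instrument, quantified remaining cell growth.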

[4] = test system: MB002 group 3 medulloblastoma cells; test: CellTiter-Glo dose-response growth assay; settings: for IC50: MB002, 72 h, day 3, read-out: d3 IC50 MB002; for normalized growth (fraction of control), replicate values: MB002, log10[compound]
Method in brief: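 This is a dose-response growth assay in MB002 cells, a group 3 medulloblastoma line. Cells were plated at 500 cells/well in 384-well plates containing growth media and treated with compound over a concentration series. After the noted incubation period, CellTiter-Glo reagent was applied per the manufacturer's protocol and luminescence was read on an Envision 2104 microplate reader.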

[5] = HD-MB03, 72 h, day 3, read-out: d3 IC50 HDMBO3

| IC50 [3, 5] | IC50 ([3]; HD-MB03, HDMBO3 G3MB cell growth, read-out: IC50 (nM) HDMBO3) | IC50 [4] | Compound | Normalized MYC expression [1] | Normalized MYC expression [2] | normalized growth (fraction of control), replicate values ([3]; M = -4.7) | normalized growth (fraction of control), replicate values ([3]; M = -5.21) | normalized growth (fraction of control), replicate values ([3]; M = -5.73) | normalized growth (fraction of control), replicate values ([3]; M = -6.25) | normalized growth (fraction of control), replicate values ([3]; M = -6.76) | normalized growth (fraction of control), replicate values ([3]; M = -7.28) | normalized growth (fraction of control), replicate values ([3]; M = -7.79) | normalized growth (fraction of control), replicate values ([3]; M = -8.31) | normalized growth (fraction of control), replicate values ([3]; M = -8.82) | normalized growth (fraction of control), replicate values ([4]; M = -4.7) | normalized growth (fraction of control), replicate values ([4]; M = -5.21) | normalized growth (fraction of control), replicate values ([4]; M = -5.73) | normalized growth (fraction of control), replicate values ([4]; M = -6.25) | normalized growth (fraction of control), replicate values ([4]; M = -6.76) | normalized growth (fraction of control), replicate values ([4]; M = -7.28) |
| --- | --- | --- | --- | --- | --- | --- | --- | --- | --- | --- | --- | --- | --- | --- | --- | --- | --- | --- | --- | --- |
| 39 nM | 82 ± 32 nM | 1280 nM | CO[C@H]1CC[C@H](n2c([C@@H]3CCCC(=O)N3c3ccc(F)c(F)c3)nc3cc(-c4c(C)noc4C)ccc32)CC1 [CCS1477] | 0.3944 and 0.5851 and 0.5892 | 0.5957 and 0.4799 and 0.4227 | 0.042 and 0.025 and 0.028 and 0.036 and 0.035 and 0.041 and 0.053 (2×) and 0.048 and 0.054 and 0.043 and 0.052 | 0.044 and 0.033 (2×) and 0.034 and 0.036 and 0.027 and 0.037 and 0.05 and 0.032 and 0.029 and 0.031 and 0.04 | 0.036 and 0.028 and 0.032 and 0.05 and 0.027 | 0.073 and 0.039 (2×) and 0.064 (2×) and 0.053 and 0.055 and 0.069 and 0.061 and 0.031 and 0.047 and 0.041 | 0.122 and 0.123 and 0.093 and 0.099 and 0.112 and 0.108 and 0.113 and 0.078 and 0.09 and 0.094 and 0.079 and 0.066 | 0.344 and 0.279 and 0.281 and 0.294 and 0.307 and 0.364 and 0.263 and 0.244 and 0.257 and 0.231 and 0.199 and 0.251 | 0.653 and 0.647 and 0.598 and 0.634 and 0.582 and 0.697 and 0.7 and 0.556 and 0.819 and 0.469 and 0.726 and 0.588 | 0.976 and 1.03 and 0.907 and 0.959 and 0.846 and 0.924 and 0.949 and 0.892 and 1.092 and 1.013 and 0.868 | 1.054 and 0.933 and 1.006 and 0.821 and 1.079 and 1.062 and 1.187 and 0.91 and 1.023 (2×) and 0.934 and 0.969 | 0.021 and 0.012 (2×) and 0.014 and 0.011 (7×) and 0.01 (2×) and 0.007 (2×) and 0.009 (3×) | 0.053 and 0.051 and 0.056 (2×) and 0.055 and 0.067 (4×) and 0.062 and 0.069 and 0.07 and 0.077 and 0.073 and 0.064 and 0.08 and 0.074 and 0.061 | 0.176 and 0.2 and 0.173 (2×) and 0.221 and 0.192 and 0.209 and 0.163 and 0.174 and 0.198 and 0.167 and 0.182 and 0.161 and 0.164 and 0.153 and 0.149 and 0.147 and 0.172 | 0.427 and 0.39 and 0.435 and 0.48 and 0.521 and 0.536 and 0.339 and 0.326 and 0.323 and 0.364 and 0.327 and 0.314 and 0.325 and 0.273 (2×) and 0.287 (2×) and 0.391 | 0.571 and 0.619 and 0.593 and 0.57 (2×) and 0.624 and 0.745 and 0.543 and 0.601 and 0.505 and 0.54 and 0.511 and 0.346 and 0.471 and 0.506 and 0.447 and 0.463 and 0.363 | 0.767 and 0.779 and 0.746 and 0.805 and 0.733 and 1.069 and 0.749 and 0.742 and 0.816 and 0.687 |
| 400 nM |  | 1970 nM | CNC(=O)Nc1ccc2c(c1)CCC21OC(=O)N(CC(=O)N(Cc2ccc(F)cc2)C(C)C(F)(F)F)C1=O (stereo not drawn) [Compound A485] | 0.2801 and 0.5062 and 0.4843 | 0.9151 and 0.6386 and 0.4867 |  |  |  |  |  |  |  |  |  |  |  |  |  |  |  |
